# According to patent publication US11845919B2, “Blood culture system with low media volume” (BECTON, DICKINSON AND COMPANY, priority 2015, dated 2023):
# System: antibiotic/microorganism combinations
# Test: TTD tests per antibiotic, Low Volume/Low Ratio vs PlusAer control
# Assay type: cell-based
# Settings: drug amount at peak serum level in 7 ml of blood
# Experimental: The performance of 1:1 blood-to-broth ratio in the presence of an inhibitory antibiotic was tested in comparison to a standard diluted blood-to-broth ratio at least 1:3. Two different sample preparations for the 1:1 blood-to-broth ratio are described below.
# FIG. 3A illustrates a low volume/low ratio preparation that is prepared in a 30 ml vial with the resin and lytic media disposed in separate chambers. The preparation contained resin and 8 ml total lytic media. The sensor in the container was a solid-state fluorescent 02 sensor. The fluorescent signal changes were used to determine microorganism growth. […] The low volume/low ratio preparation provided a 1:1 blood-to-broth ratio. The total 8 ml lytic media were separated into two parts. One part of the lytic media was in the 30 ml bottle with resin and the other part of the lytic media was in a separate device and the media therein was added under sterile conditions into the 30 ml bottle at the time the bottle was inoculated with both the blood sample and the microorganisms.
# FIG. 3B illustrates the second sample preparation identified as “PlusLytic”. The PlusLytic preparation uses the BACTEC Plus Aerobic product that is commercially available, which is 30 ml of media in the 80 ml bottle. At the time of testing, 8 ml of blood, a predetermined amount of antibiotic, 10-100 CFU's of microorganisms, and an additional 20 mg of saponin were combined with the 30 ml of media in the bottle. […] The control test sample preparation is depicted in FIG. 3C and identified as “PlusAer”. The PlusAer preparation uses the commercially available BACTEC Plus Aerobic product without any additional media components. At the time of testing, 8 ml of blood, a predetermined amount of antibiotic and 10-100 CFU's of microorganisms are combined with the contents of the BACTEC Plus Aerobic product.
# Each sample preparation was tested with 64 antibiotic/microorganism combinations. The antibiotics tested were Gentamicin, Amoxicillin-Clavulanate, Aztreonam, Ceftriaxone, Cefepime, Imipenem, Meropenem, Piperacillin-Tazobactam, Vancomycin, Tigecycline, Ciprofloxacin, Tetracycline, Fluconazole. The drug quantity inoculated into each test bottle was equivalent to the drug amount at its peak serum level in 7 ml of blood. These antibiotics were combined with certain microorganisms that they generally treat. For example, Amoxicillin-Clavulanate was combined with S. aureus, E. coli, and E. faecalis. Each sample was tested for both TTD and recovery of the microorganism in the presence of drugs.
# The media was inoculated with blood sample, antibiotics and saponin a few minutes apart from each other.
row,Molecule,TTD of the Low Volume/Low Ratio preparation as compared to the PlusAer preparation
1,CO/N=C(\C(=O)N[C@@H]1C(=O)N2C(C(=O)O)=C(CSc3nc(=O)c(=O)[nH]n3C)CS[C@H]12)c1csc(N)n1 [Ceftriaxone],faster TTD
2,C[C@@H](O)[C@H]1C(=O)N2C(C(=O)O)=C(S[C@@H]3CN[C@H](C(=O)N(C)C)C3)[C@H](C)[C@H]12 [Meropenem],faster TTD
3,Amoxicillin-Clavulanate [Amoxicillin/clavulanic acid],faster TTD
4,CN[C@H](CC(C)C)C(=O)N[C@H]1C(=O)N[C@@H](CC(N)=O)C(=O)N[C@H]2C(=O)N[C@H]3C(=O)N[C@H](C(=O)N[C@H](C(=O)O)c4cc(O)cc(O)c4-c4cc3ccc4O)[C@H](O)c3ccc(c(Cl)c3)Oc3cc2cc(c3O[C@@H]2O[C@H](CO)[C@@H](O)[C@H](O)[C@H]2O[C@H]2C[C@](C)(N)[C@H](O)[C@H](C)O2)Oc2ccc(cc2Cl)[C@H]1O [Vancomycin],faster TTD
5,Gentamicin,slower TTD
